One may read the mortality as the percentage killed. Read a low mortality as more survivors.

Common to all, as to assay type: in vivo
In test [1] the test system is Plutella xylostella. Put plainly: Activity against Plutella xylostella (diamond back moth), artificial diet. The note with it: for percent effect (mortality or growth inhibition) at 200 ppm: 192 h, application rate 200 ppm, eggs, 8 days after infestation, read-out: effect in at least one of the two categories (mortality or growth inhibition); for mortality at 12.5 ppm: concentration 12.5 ppm. The protocol:
24-well microtiter plates with artificial diet were treated with aqueous test solutions prepared from 10′000 ppm DMSO stock solutions by pipetting. After drying, Plutella eggs were pipetted through a plastic stencil onto a gel blotting paper and the plate was closed with it. The samples were assessed for mortality and growth inhibition in comparison to untreated samples 8 days after infestation.
(§1) Activity of compound P5 according to the preparatory examples and of compound P.118 from WO 21/083936 against Plutella xylostella ([…]) and Diabrotica balteata (Example B2) is summarized in Table B9.

In test [2] the test system is Spodoptera littoralis. Put plainly: Activity against Spodoptera littoralis (Egyptian cotton leaf worm), sprayed cotton leaf discs. The note with it: foliar, 72 h, application rate 200 ppm, L1 larvae, 3 days after infestation. The protocol:
Cotton leaf discs were placed onto agar in 24-well microtiter plates and sprayed with aqueous test solutions prepared from 10′000 ppm DMSO stock solutions. After drying the leaf discs were infested with five L1 larvae. The samples were assessed for mortality, anti-feeding effect, and growth inhibition in comparison to untreated samples 3 days after infestation. Control of Spodoptera littoralis by a test sample is given when at least one of the categories mortality, anti-feedant effect, and growth inhibition is higher than the untreated sample.

Test [3] concerns Diabrotica balteata. Put plainly: Activity against Diabrotica balteata (corn root worm), sprayed maize sprouts. The note with it: for percent effect (mortality or growth inhibition) at 200 ppm: 96 h, application rate 200 ppm, L2 larvae, 4 days after infestation, read-out: effect in at least one of the two categories (mortality or growth inhibition); for mortality at 3.125 ppm: concentration 3.125 ppm. The protocol: Maize sprouts placed onto an agar layer in 24-well microtiter plates were treated with aqueous test solutions prepared from 10′000 ppm DMSO stock solutions by spraying. After drying, the plates were infested with L2 larvae (6 to 10 per well). The samples were assessed for mortality and growth inhibition in comparison to untreated samples 4 days after infestation.
as §1

For test [4], the system named is Chilo suppressalis. The experiment in a line: Activity against Chilo suppressalis (striped rice stemborer), artificial diet in 24-well plates. The note with it: 144 h, application rate 200 ppm, L2 larvae, 6 days after infestation. The protocol:
24-well microtiter plates with artificial diet were treated with aqueous test solutions prepared from 10′000 ppm DMSO stock solutions by pipetting. After drying, the plates were infested with L2 larvae (6-8 per well). The samples were assessed for mortality, anti-feeding effect, and growth inhibition in comparison to untreated samples 6 days after infestation. Control of Chilo suppressalis by a test sample is given when at least one of the categories mortality, anti-feedant effect, and growth inhibition is higher than the untreated sample.

For the compound `CC(Nc1ncnc2c(Br)cc(Br)cc12)c1nccnc1-c1ncsn1` (centres unmarked) [P16, 6,8-dibromo-N-[1-[3-(1,2,4-thiadiazol-3-yl)pyrazin-2-yl]ethyl]quinazolin-4-amine], the percent effect (mortality or growth inhibition) at 200 ppm in test [1] and in test [3] was not below 80% throughout. The compound further yielded a percent control (mortality, anti-feedant effect or growth inhibition) at 200 ppm in test [2] not below 80%.
Compound `CC(Nc1ncnc2c(C(F)(F)F)cc(Cl)cc12)c1nccnc1-c1ccc(C#N)cn1` (centres unmarked) [P.118, reference compound] yielded a mortality at 12.5 ppm in test [1] of 0%. This compound registered a mortality at 3.125 ppm in test [3] of 0%.
For the compound `CC(Nc1nc(=O)[nH]c2c(Br)cc(C(F)(F)F)cc12)c1nccnc1-c1ncc(C#N)s1` (centres unmarked) [P1, 2-[3-[1-[[8-bromo-2-oxo-6-(trifluoromethyl)-1H-quinazolin-4-yl]amino]ethyl]pyrazin-2-yl]thiazole-5-carbonitrile], the percent effect (mortality or growth inhibition) at 200 ppm in test [1] and in test [3] was not below 80% throughout. The percent control (mortality, anti-feedant effect or growth inhibition) at 200 ppm in test [4] was not below 80%.
As to `C[C@H](Nc1nc(=O)[nH]c2c(Br)cc(C(F)(F)F)cc12)c1ncnn1-c1ncc(C#N)s1` [P2, 2-[5-[(1S)-1-[[8-bromo-2-oxo-6-(trifluoromethyl)-1H-quinazolin-4-yl]amino]ethyl]-1,2,4-triazol-1-yl]thiazole-5-carbonitrile], in test [1], the percent effect (mortality or growth inhibition) at 200 ppm is not below 80%. In addition, the percent control (mortality, anti-feedant effect or growth inhibition) at 200 ppm in test [2] and in test [4] was not below 80% each time.
As to `CC(Nc1ncnc2c(C(F)(F)F)cc(C(F)(F)F)cc12)c1nccnc1-c1ncc(C#N)s1` (centres unmarked) [P7, 2-[3-[1-[[6,8-bis(trifluoromethyl)quinazolin-4-yl]amino]ethyl]pyrazin-2-yl]thiazole-5-carbonitrile], the percent effect (mortality or growth inhibition) at 200 ppm in test [1] and in test [3] was not below 80% throughout. Besides, the percent control (mortality, anti-feedant effect or growth inhibition) at 200 ppm in test [2] and in test [4] was not below 80% in each case.
Regarding `CC(Nc1ncnc2c(C(F)(F)F)cc(Cl)cc12)c1nccnc1-c1ncsn1` (centres unmarked) [P13, 6-chloro-N-[1-[3-(1,2,4-thiadiazol-3-yl)pyrazin-2-yl]ethyl]-8-(trifluoromethyl)quinazolin-4-amine], the percent effect (mortality or growth inhibition) at 200 ppm in test [1] and in test [3] was not below 80% in each case. In test [2], this compound yielded a percent control (mortality, anti-feedant effect or growth inhibition) at 200 ppm not below 80%.
`CC(Nc1ncnc2c(Br)cc(Br)cc12)c1nccnc1-c1ncc(C#N)s1` (centres unmarked) [P19, 2-[3-[1-[(6,8-dibromoquinazolin-4-yl)amino]ethyl]pyrazin-2-yl]thiazole-5-carbonitrile]: the percent effect (mortality or growth inhibition) at 200 ppm in test [1] and in test [3] was not below 80% throughout. The percent control (mortality, anti-feedant effect or growth inhibition) at 200 ppm in test [2] and in test [4] was not below 80% each time.
As to `CC(Nc1nc(=O)[nH]c2c(Br)cc(C(F)(F)F)cc12)c1nccnc1-c1ncc(Br)s1` (centres unmarked) [P4, 8-bromo-4-[1-[3-(5-bromothiazol-2-yl)pyrazin-2-yl]ethylamino]-6-(trifluoromethyl)-1H-quinazolin-2-one], the percent effect (mortality or growth inhibition) at 200 ppm in test [1] and in test [3] was not below 80% throughout. The percent control (mortality, anti-feedant effect or growth inhibition) at 200 ppm in test [4] is not below 80%.
As for `CC(Nc1ncnc2c(Cl)cc(C(F)(F)F)cc12)c1nccnc1-c1ncc(C#N)s1` (centres unmarked) [P12, 2-[3-[1-[[8-chloro-6-(trifluoromethyl)quinazolin-4-yl]amino]ethyl]pyrazin-2-yl]thiazole-5-carbonitrile], the percent effect (mortality or growth inhibition) at 200 ppm in test [1] and in test [3] was not below 80% in each case. Besides, the percent control (mortality, anti-feedant effect or growth inhibition) at 200 ppm in test [2] and in test [4] was not below 80% in each case.
Consider `CC(Nc1ncnc2c(Cl)cc(C(F)(F)F)cc12)c1nccnc1-c1ncsn1` (centres unmarked) [P18, 8-chloro-N-[1-[3-(1,2,4-thiadiazol-3-yl)pyrazin-2-yl]ethyl]-6-(trifluoromethyl)quinazolin-4-amine], for which the percent effect (mortality or growth inhibition) at 200 ppm in test [1] and in test [3] was not below 80% each time.
With `C[C@@H](c1ncnn1-c1ncc(C#N)s1)N(C)c1ncnc2c(C(F)(F)F)cc(Cl)cc12` [P11, 2-[5-[(1S)-1-[[6-chloro-8-(trifluoromethyl)quinazolin-4-yl]-methyl-amino]ethyl]-1,2,4-triazol-1-yl]thiazole-5-carbonitrile], the percent effect (mortality or growth inhibition) at 200 ppm in test [1] and in test [3] was not below 80% in each case. Moreover, the percent control (mortality, anti-feedant effect or growth inhibition) at 200 ppm in test [2] and in test [4] was not below 80% in each case.
Consider `CC(Nc1ncnc2c(C(F)(F)F)cc(C(F)(F)F)cc12)c1nccnc1-c1ncc(Br)s1` (centres unmarked) [P8, N-[1-[3-(5-bromothiazol-2-yl)pyrazin-2-yl]ethyl]-6,8-bis(trifluoromethyl)quinazolin-4-amine], for which the percent effect (mortality or growth inhibition) at 200 ppm in test [1] and in test [3] was not below 80% each time. In test [4], this compound showed a percent control (mortality, anti-feedant effect or growth inhibition) at 200 ppm not below 80%.
On to `C[C@H](Nc1nc(Cl)nc2c(Br)cc(C(F)(F)F)cc12)c1ncnn1-c1ncc(C#N)s1` [P9, 2-[5-[(1S)-1-[[8-bromo-2-chloro-6-(trifluoromethyl)quinazolin-4-yl]amino]ethyl]-1,2,4-triazol-1-yl]thiazole-5-carbonitrile], for which the percent effect (mortality or growth inhibition) at 200 ppm in test [1] and in test [3] was not below 80% each time. The same compound came in with a percent control (mortality, anti-feedant effect or growth inhibition) at 200 ppm in test [4] not below 80%.
`C[C@H](Nc1ncnc2c(Cl)cc(S(=O)(=O)C(F)(F)F)cc12)c1ncnn1-c1ncc(C#N)s1` [P22, 2-[5-[(1S)-1-[[8-chloro-6-(trifluoromethylsulfonyl)quinazolin-4-yl]amino]ethyl]-1,2,4-triazol-1-yl]thiazole-5-carbonitrile]: the percent effect (mortality or growth inhibition) at 200 ppm in test [1] and in test [3] was not below 80% in each case. Further, the percent control (mortality, anti-feedant effect or growth inhibition) at 200 ppm in test [2] and in test [4] was not below 80% throughout.
Regarding `CC(Nc1ncnc2c(C(F)(F)F)cc(Cl)cc12)c1nccnc1-c1ncc(C#N)s1` (centres unmarked) [P5, 2-[3-[1-[[6-chloro-8-(trifluoromethyl)quinazolin-4-yl]amino]ethyl]pyrazin-2-yl]thiazole-5-carbonitrile], in test [1], the percent effect (mortality or growth inhibition) at 200 ppm is not below 80% and the mortality at 12.5 ppm worked out at 50%. The percent control (mortality, anti-feedant effect or growth inhibition) at 200 ppm in test [2] is not below 80%. Also, the percent control (mortality, anti-feedant effect or growth inhibition) at 200 ppm in test [4] is not below 80%. Further, in test [3], the percent effect (mortality or growth inhibition) at 200 ppm was not below 80% and the mortality at 3.125 ppm is 100%.
`CC(Nc1ncnc2c(C(F)(F)F)cc(Cl)cc12)c1nccnc1-c1ncc(Br)s1` (centres unmarked) [P6, N-[1-[3-(5-bromothiazol-2-yl)pyrazin-2-yl]ethyl]-6-chloro-8-(trifluoromethyl)quinazolin-4-amine]: the percent control (mortality, anti-feedant effect or growth inhibition) at 200 ppm in test [4] is not below 80%. For the same compound, the percent effect (mortality or growth inhibition) at 200 ppm in test [3] is not below 80%.

The values are drawn from patent US20240294517A1, “2-[3-[1 [(QUINAZOLIN-4-YL)AMINO]ETHYL]PYRAZIN-2-YL]THIAZOLE-5-CARBONITRILE DERIVATIVES AND SIMILAR COMPOUNDS AS PESTICIDES” (SYNGENTA CROP PROTECTION AG, priority 2021, published 2024).
